Legend:
Format in all cases: in vivo
[1] = tested on: boll weevil (Anthonomus grandis); assay: Activity against boll weevil, insect diet with eggs in microtiter plates; conditions: 120 h, test solution 2500 mg/L, sprayed onto diet, 5 days, read-out: mortality (egg and larval) in comparison with untreated controls
Method: The compounds were formulated in 75:25 (vohvol) water:DMSO.
For evaluating control of boll weevil (Anthonomus grandis) the test unit consisted of 24-well-microtiter plates containing an insect diet and 20-30 A. grandis eggs. Different concentrations of formulated compounds were sprayed onto the insect diet at 20 μI, using a custom built micro atomizer, at two replications. After application, the microtiter plates were incubated at 23±1° C. and 50±5% relative humidity for 5 days. Egg and larval mortality was then visually assessed.

[2] = tested on: brown planthopper (Nilaparvata lugens); assay: Activity against brown planthopper, sprayed rice seedlings; conditions: spray, after 72 hours, read-out: mortality in comparison with untreated controls
Method: The active compounds were formulated as a 50:50 (vohvol) acetone:water solution. Surfactant (Alkamuls® EL 620 from Rhodia) was added at the rate of 0.1% (vol/vol).
Rice seedlings were cleaned and washed 24 h before spraying. Potted rice seedlings were sprayed with 5 ml test solution, air dried, placed in cages and inoculated with 10 adults. Treated rice plants were kept at 28-29° C. and relative humidity of 50-60%. Percent mortality was recorded after 72 hours.

[3] = tested on: cowpea aphid (Aphis craccivora); assay: Activity against cowpea aphid, sprayed potted cowpea plants; conditions: spray, population reduction assessed after 24, 72 and 120 hours, read-out: mortality in comparison with untreated controls
Method: The active compounds were formulated in 50:50 (vohvol) acetone:water. The test solution was prepared at the day of use.
Potted cowpea plants colonized with 100-150 aphids of various stages were sprayed after the pest population had been recorded. Population reduction was assesed after 24, 72, and 120 hours.

[4] = tested on: vetch aphid (Megoura viciae); assay: Activity against vetch aphid, sprayed bean leaf disks in microtiter plates; conditions: foliar, 144 h, test solution 2500 mg/L, leaf disk spray, 6 days, read-out: mortality in comparison with untreated controls
Method: The active compounds were formulated in 1:3 (vol:vol) DMSO:water with different concentrations of formulated compounds.
Bean leaf disks were placed into microtiterplates filled with 0.8% agar-agar and 2.5 ppm OPUST™. The leaf disks were sprayed with 2.5 μl of the test solution and 5 to 8 adult aphids were placed into the microtiterplates which were then closed and kept at 23±1° C. and 50±5% relative humidity under fluorescent light for 6 days. Mortality was assessed on the basis of vital, reproduced aphids. Aphid mortality and fecundity was then visually assessed.

[5] = tested on: Vanda/orchid thrips (Dichromothrips corbetti); assay: Activity against Vanda/orchid thrips, dipped orchid petals; conditions: petal dip, after 72 hours, read-out: mortality in comparison with untreated controls
Method: The active compounds were formulated as a 50:50 (vohvol) acetone:water solution. Surfactant (Alkamuls® EL 620 from Rhodia) was added at the rate of 0.1% (vol/vol). Vanda orchids petals were cleaned, washed and air dried prior to dipping. Petals were dipped into the test solution for 3 seconds, air dried, placed inside a resealable plastic and inoculated with 20 adults. The treated petals were kept inside the holding room at 28-29° C. and relative humidity of 50-60%. Percent mortality was recorded after 72 hours.

[6] = tested on: diamondback moth (Plutella xylostella); assay: Activity against diamondback moth, dipped cabbage leaf disk; conditions: foliar, test solution 500 ppm, leaf dip, third instar larvae, after 72 h, read-out: mortality in comparison with untreated controls
Method: The active compounds were formulated in 50:50 acetone:water and 0.1% (vol/vol) Alkamuls® EL 620 surfactant. A 6 cm leaf disk of cabbage leaves was dipped in the test solution for 3 seconds and allowed to air dry in a Petri plate lined with moist filter paper. The leaf disk was inoculated with 10 third instar larvae and kept at 25-27° C. and 50-60% humidity for 3 days. Mortality was assessed after 72 h of treatment.

[7] = tested on: silverleaf whitefly (Bemisia argentifolii, adult); assay: Activity against silverleaf whitefly adults, sprayed cotton plants; conditions: 72 h, spray, 3 days after treatment, read-out: mortality in comparison with untreated controls
Method: The active compounds were formulated in cyclohexanone as a 10,0000 ppm solution supplied in 1.3 ml ABgene® tubes. These tubes were inserted into an automated electrostatic sprayer equipped with an atomizing nozzle and they served as stock solutions for which lower dilutions were made in 50% acetone:50% water (v/v). A nonionic surfactant (Kinetic®) was included in the solution at a volume of 0.01% (v/v).
Cotton plants at the cotyledon stage (one plant per pot) were sprayed by an automated electrostatic plant sprayer equipped with an atomizing spray nozzle. The plants were dried in the sprayer fume hood and then removed from the sprayer. Each pot was placed into a plastic cup and 10 to 12 whitefly adults (approximately 3-5 days old) were introduced. The insects were collected using an aspirator and 0.6 cm, nontoxic Tygon® tubing (R-3603) connected to a barrier pipette tip. The tip, containing the collected insects, was then gently inserted into the soil containing the treated plant, allowing insects to crawl out of the tip to reach the foliage for feeding. Cups were covered with a reusable screened lid (150-micron mesh polyester screen PeCap from Tetko, Inc.). […] Mortality was assessed 3 days after treatment, compared to untreated control plants.

[8] = tested on: Mediterranean fruitfly (Ceratitis capitata); assay: Activity against Mediterranean fruitfly, insect diet with eggs in microtiter plates; conditions: 120 h, sprayed onto diet with eggs, 5 days, read-out: mortality (egg and larval)
Method: The active compounds were formulated in 1:3 (vohvol) DMSO:water.
For evaluating control of Mediterranean fruitfly the test unit consisted of microtiter plates containing an insect diet and 50 to 80 C. capitata eggs.
Different concentrations of formulated compounds were sprayed onto the insect diet at 5 μI, using a custom built micro atomizer, at two replications. After application, microtiter plates were incubated at 28±1° C. and 80±5% relative humidity for 5 days. Egg and larval mortality was then visually assessed.

CC(Cl)(c1nnc(C(F)(F)F)s1)[S+]([O-])CCSC(F)(F)F (centres unmarked) [11-8, 2-{1-Chloro-1-[2-(trifluoromethylthio)ethylsulfinyl]ethyl}-5-(trifluoromethyl)-1,3,4-thiadiazole]
mortality at 2500 µg/mL [1]: 100% | mortality at 500 ppm [2]: ≥ 75%

CC(c1nnc(C(F)(F)F)s1)[S+]([O-])CCSC(F)(F)F (centres unmarked) [11-3, 2-(Trifluoromethyl)-5-{1-[2-(trifluoromethylthio)ethylsulfinyl]ethyl}-1,3,4-thiadiazole]
mortality at 500 ppm [3]: ≥ 75% | mortality at 2500 µg/mL [4]: 100% | mortality at 2500 µg/mL [1]: 100% | mortality at 500 ppm [5]: ≥ 75% | mortality at 500 ppm [2]: ≥ 75% | mortality at 500 ppm [6]: ≥ 75%

CC(c1nnc(C(F)(F)F)s1)S(=O)(=O)CCSC(F)(F)F (centres unmarked) [11-2, 2-(Trifluoromethyl)-5-{1-[2-(trifluoromethylthio)ethylsulfonyl]-ethyl}-1,3,4-thiadiazole]
mortality at 500 ppm [3]: ≥ 75% | mortality at 2500 µg/mL [4]: 100% | mortality at 500 ppm [7]: ≥ 75% | mortality at 2500 µg/mL [1]: 100% | mortality at 500 ppm [5]: ≥ 75% | mortality at 2500 ppm [8]: ≥ 50%

CC(C#N)(SCCSC(F)(F)F)c1nnc(C(F)(F)F)s1 (centres unmarked) [11-9, 2-(5-(trifluoromethyl)-1,3,4-thiadiazol-2-yl)-2-(2-(trifluoromethylthio)ethylthio)propanenitrile]
mortality at 2500 ppm [8]: ≥ 50%

CC(SCCSC(F)(F)F)c1nnc(C(F)(F)F)s1 (centres unmarked) [11-1, 2-(Trifluoromethyl)-5-{1-[2-(trifluoromethylthio)ethylthio]ethyl}-1,3,4-thiadiazole]
mortality at 2500 µg/mL [4]: 100% | mortality at 2500 µg/mL [1]: 100%
